What was measured:
[1] = tested on: cabbage looper (Trichoplusia ni [Hubner]); test: Foliar treated test against cabbage looper (chick pea plants); type: in vivo; settings: rate of application 30 ppm; foliage; 96 hour exposure
Source text: (§1) Foliar Treated Test Against Tobacco Budworm and Cabbage Looper
(§2) Nine-to-ten day-old chick pea plants (Cicer arietinum) were sprayed at 15 psi to runoff on both upper and lower leaf surfaces with solutions of test compound to provide application rates as high as 1000 ppm of test chemical. The solvent used to prepare the solutions of test compound was 10% acetone or methanol (v/v) and 0.1% of the surfactant octylphenoxypolyethoxyethanol in distilled water. Four replicates, each containing one chick pea plant, for each rate of application of test compound were sprayed. The treated plants were transferred to a hood where they were kept until the spray had dried.
(§3) The four chick pea plants for each replicate treated with test compound as described above were removed from their pots by cutting the stems just above the soil line. The excised leaves and stems from the four plants in each replicate were placed in individual 237 mL (8-ounce) paper cups, which contained a moistened filter paper. Five second-instar (7 days old) tobacco budworms or cabbage loopers (7 days old) were counted into each cup, taking care not to cause injury. An opaque plastic lid was placed on each cup, which was then held in a growth chamber for a 96 hour exposure period at 25° C., 50% relative humidity and photo-period of 12 hours light and 12 hours dark. At the end of the 96 hour exposure period the cups were opened, and the numbers of dead, moribund, and live insects were counted. Using the insect counts, the efficacy of the test compound was expressed in percent control. Percent control is derived from the total number of dead insects (TD) plus the total number of moribund insects (TM) as compared to the total number of insects (TI) in the test:
(§4) The condition of the test plants was also observed for phytotoxicity and for reduction of feeding damage as compared to an untreated control.

[2] = tested on: tobacco budworm (Heliothis virescens [Fabricius]); test: Foliar treated test against tobacco budworm (chick pea plants); type: in vivo; settings: rate of application 30 ppm; foliage; 96 hour exposure
Source text: as §1, §2, §3, §4

[3] = tested on: Diamondback Moth (Plutella xylostella); test: Foliar treated test against diamondback moth (cabbage leaf discs); type: in vivo; settings: rate of application 30 ppm; foliage; 96 hour exposure
Procedure: Four replicates, each containing one cabbage leaf disc, for each rate of application of test compound were dipped. The four cabbage leaf discs for each replicate treated were immersed for five seconds in the solution of test compound as described above. Each discs was then placed in individual 50 mm Petrie dishes containing a filter paper 42.5 mm in diameter that had been moistened with 100 μL of water. The uncovered Petrie dishes were then set aside until the leaf discs were dry. After this time, two third-instar diamondback moth larvae (10-14 days old) were carefully placed on each leaf disc. A tight-fitting lid was then placed on each Petrie dish, which was which was then held in a growth chamber for a 96 hour exposure period at 25° C., 50% relative humidity and photo-period of 12 hours light and 12 hours dark. At the end of the 96 hour exposure period the Petrie dishes were uncovered, and the numbers of dead, moribund, and live insects were counted. Using the insect counts, the efficacy of the test compound was expressed in percent control by methods set forth above in tests against the tobacco budworm and cabbage looper.

[4] = Photostability (rate of photolysis, thin film on glass, Suntest CPS illuminator); type: physicochemical; settings: for Percent of Compound 12 Half-life: relative photolysis half-life compared to compound 12; for Photolysis Half-life: thin film on glass coverslips, filtered xenon lamp, about 25° C.
Procedure: These tests were conducted in the following manner:
For each compound tested, three glass microscope coverslips (12 mm in diameter) for each illumination period (1, 3, 6, 12, and 24 hours) were spotted with 10 microliters of a one mg/mL acetonitrile or methanol solution of test compound. Three coverslips were also spotted with test compound and were not illuminated. The material on these non-illuminated coverslips was analyzed at the end of the experiment as described below to determine the test compound stability on glass. The solvents in each 10 microliter solution on each coverslip were allowed to evaporate leaving a thin film of test compound on each coverslip. Three of the coverslips representing the zero hour illumination period were then placed in a 20 mL scintillation vial. In the vial was placed one mL of acetonitrile, which extracted the test chemical from the coverslip. The solution was then transferred to a two-dram vial for analysis by HPLC. The average HPLC peak area generated by this sample defined the initial level of test compound. The remaining coverslips were then placed in the water-cooled chamber of the exposure platform of a Suntest CPS illuminator (Heraeus Instruments GmbH; Bereich Original Hanau, Hersaeusstrasse R-14, Postfach 1563, D-6450 Hanau 1). The exposure platform was covered with a quartz plate and maintained at about 25° C. for the duration of the test. The Suntest CPS illuminator employs a filtered xenon lamp, which provides illumination of a similar spectrum and intensity as sunlight. Three coverslips for each test compound were removed from the illuminator at 1, 3, 6, 12, and 24 hours of continuous illumination. Approximately eight hours of illumination is equivalent to one summer day at 40° N latitude. The three coverslips from each of the illumination periods were treated as described above and analyzed by HPLC. The average HPLC peak area from each of these illumination periods represents a diminished amount of test compound when compared to the initial level of test compound as determined from the zero hour illumination sample. The percents of test compound remaining from each of these illumination periods were used to generate a degradation curve from which a half-life in hours was determined for each test compound.

[5] = tested on: tobacco budworm (Heliothis virescens [Fabricius]); test: Surface-treated diet test against tobacco budworm; type: in vivo; settings: 0.25 millimolar on the surface of the diet, second instar larvae, five-day exposure; for Percent Growth Inhibition: insect weight relative to untreated controls
Source text: Surface-Treated Diet Test Against Tobacco Budworm
The test compounds of formula I are identified by numbers that correspond to those in Table 1.

[6] = tested on: cabbage looper; test: Whole plant foliar treated test against cabbage looper; type: in vivo, Trichoplusia ni; settings: cabbage plants sprayed, 96 hour exposure; for Percent Control at 25 g: rate of application 25 g; for Percent Control at 50 g: rate of application 50 g; for Percent Control at 100 g: rate of application 100 g
Procedure: Whole Plant Foliar Treated Test Against Cabbage Looper
For each rate of application of test compound, a 15 mL aliquot of test solution was prepared. Sufficient test compound was dissolved in 1.5 mL of acetone to provide an application rate as high as 1000 grams/Ha. Each solution was then added to 13.5 mL of water containing 300 ppm of a surfactant. There were four replicates for each rate of application of test compound, and all tests included a known chemical standard as well as a standard of water and surfactant and untreated checks.
A maximum of 14 appropriately sized cabbage plants for each rate of application and replicate were arranged in a 28 pot plastic flat and sprayed with the 15 mL sample of test compound using an traveling boom sprayer equipped with a cone spray tip at a rate of 30 gallons/acre under a pressure of 40-44 psi. The untreated checks were sprayed first, followed by the test compounds and standards, all in order of lowest to highest rates of application. Once the spraying was complete, the test plants were allowed to air-dry on the conveyor on which they were sprayed.
For each rate of application and replication, sufficient Petrie dishes, 50×9 mm in size, were lined with filter paper disks and each were moistened with 0.5 mL of distilled water. From each replicate cabbage plant at least three 2.5 cm disks were cut Each leaf disk was then placed in an individual Petrie dishes with the adaxial side of the leaf facing up. Following placement of the leaf disks, two neonate cabbage looper larvae were placed on each disk. Upon completion of infestation each Petrie dish was covered and held in a growth chamber for a 96 hour exposure period at 25° C., 40%-60% relative humidity and photo-period of 12 hours light and 12 hours dark. At the end of the 96 hour exposure period the Petrie dishes were opened, and the numbers of dead, moribund, and live insects were counted. Using the insect counts, the efficacy of the test compound was expressed in percent control. Percent control is derived from the total number of dead insects (TD) plus the total number of moribund insects (TM) as compared to the total number of insects (TI) in the test:
[formula] The condition of the test plants was also observed for phytotoxicity and for reduction of feeding damage as compared to an untreated control.

Structure (SMILES)	Percent Control CL (Cabbage Looper) [1] [%]	Percent Control TBW (Tobacco Budworm) [2] [%]	Percent Control DBM (Diamondback Moth) [3] [%]	Percent of Compound 12 Half-life [4] [%]	Photolysis Half-life [4] [h]	Percent Mortality [5] [%]	Percent Growth Inhibition [5] [%]	Percent Control at 25 g [6] [%]	Percent Control at 50 g [6] [%]	Percent Control at 100 g [6] [%]
ClC(Cl)=CCOc1cc(Cl)c(OCCCCOc2cccc3occc23)c(Cl)c1 [Z]	20	60	60	21	4	–	–	–	–	–
ClC(Cl)=CCOc1cc(Cl)c(OCCCCCc2cc3ccccc3o2)c(Cl)c1 [Y]	–	5	–	21	4	–	–	–	–	–
ClC(Cl)=CCOc1cc(Cl)c(OCCCCOc2cccc3ccoc23)c(Cl)c1 [Compound W]	20	62	60	58	11	–	–	–	–	–
CC1(C)Cc2cc(C(F)(F)F)cc(OCCCCOc3c(Cl)cc(OCC=C(Cl)Cl)cc3Cl)c2O1 [Compound 20, 5-(3,3-dichloroprop-2-enyloxy)-2-{4-[2,2-dimethyl-5-(trifluoromethyl)(2,3-dihydrobenzo[2,3-b]furan-7-yloxy)]-butoxy}1,3-dichlorobenzene]	–	–	–	–	–	100	100	–	–	–
CC1(C)Cc2cccc(OCCCCOc3c(Cl)cc(OCC=C(Cl)Cl)cc3Cl)c2O1 [Compound 12, 5-(3,3-Dichloroprop-2-enyloxy)-2-[4-(2,2-dimethyl(2,3-dihydrobenzo[2,3-b]furan-7-yloxy))butoxy]-1,3-dichlorobenzene]	96	88	91	100	19	100	100	88	100	100
Cc1cc2cccc(OCCCCOc3c(Cl)cc(OCC=C(Cl)Cl)cc3Cl)c2o1 [X]	50	96	85	32	6	–	–	8	8	13
CC1(C)Cc2cccc(OC(=O)NCCCOc3c(Cl)cc(OCC=C(Cl)Cl)cc3Cl)c2O1 [Compound 53, N-{3-[4-(3,3-dichloroprop-2-enyloxy)-2,6-dichlorophenoxy]propyl}(2,2-dimethyl(2,3-dihydrobenzo[2,3-b]furan-7-yloxy))-carboxamide]	–	–	–	–	–	100	100	–	–	–
